Laboratory results published in patent US20260166039A1 (SCHRÖDINGER, INC., priority 2022, published 2026).
Where two headings read alike, the source gives them in different places.

Key:
Wee1 kinase domain = molecular target: T1, Wee1 kinase domain (Homo sapiens, UniProt P30291); assay: Wee1 Kinase Biochemical Assay (ADP-Glo); details: 1 nM Wee1 enzyme, 15 uM ATP
T1 construct: Wee1 kinase domain was purchased from Carna (catalog #05-177); purchased Carna 05-177
Procedure, shortened: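 ADP-Glo luminescence readout of ADP produced by 1 nM kinase domain phosphorylating Poly(Lys,Tyr 4:1) (2 ng/mL) at 15 uM ATP. Reaction ran 4 h, 25 °C, in Tris/MgCl2 buffer with BSA and DTT. Inhibition scaled between DMSO (high) and saturating control inhibitor (low).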

[1] = system: phosphorylation of Cdc2 Y15 (Wee1 substrate) in A427 cells; assay: Phosphorylated Cdc2 MSD Electrochemiluminescence Assay; assay type: cell-based; details: Homo sapiens
Procedure, shortened: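 Read-out: percent residual phospho-Cdc2 Y15 relative to DMSO and positive-control Wee1 inhibitor, measured by MSD electrochemiluminescence capture/detection antibody assay in cell lysates. A427 cells received duplicate 3-fold compound dilution series 20 h post-seeding, with 6 h total incubation at 37 °C.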

T1 sequence (P30291 299-569 limits assumed): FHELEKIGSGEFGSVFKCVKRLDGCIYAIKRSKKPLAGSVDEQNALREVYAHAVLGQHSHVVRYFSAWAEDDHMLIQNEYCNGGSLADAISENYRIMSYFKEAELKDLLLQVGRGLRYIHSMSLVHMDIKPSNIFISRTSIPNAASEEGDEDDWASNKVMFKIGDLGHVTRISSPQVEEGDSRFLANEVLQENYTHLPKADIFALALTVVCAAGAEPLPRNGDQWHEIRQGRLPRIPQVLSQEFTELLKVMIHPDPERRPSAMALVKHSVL

Row | IC50 (Wee1 kinase domain; class symbols, 4 hours at 25° C.) | IC50 ([1]; A-427, class symbols, read-out: A427 pCDC2 MSD IC50) | IC50 (Wee1 kinase domain; 4 hours at 25° C) | IC50 ([1]; A-427, read-out: A427 pCDC2 MSD IC50) | Compound
1 | < 10 nM | < 100 nM |  |  | CC1(C)C[C@H]2N(c3cccc(P(C)(C)=O)n3)c3nc(Nc4ccn([C@@H]5CCOC5)c(=O)c4)ncc3[C@@]2(C)CO1 [Example 783, 4-(((4bR,8aR)-9-(6-(dimethylphosphoryl)pyridin-2-yl)-4b,7,7-trimethyl-4b,5,7,8,8a,9-hexahydropyrano[3′,4′:4,5]pyrrolo[2,3-d]pyrimidin-2-yl)amino)-1-((R)-tetrahydrofuran-3-yl)pyridin-2(1H)-one]
2 |  |  | < 10 nM | 100 to 1000 nM | CC[C@@]1(O)CCc2ccc(N3c4nc(Nc5ccn(C6CCN(C)CC6)c(=O)c5)ncc4[C@@]4(C)COC(C)(C)C[C@@H]34)nc21 [Example 812, 4-(((4bR,8aR)-9-((R)-7-ethyl-7-hydroxy-6,7-dihydro-5H-cyclopenta[b]pyridin-2-yl)-4b,7,7-trimethyl-4b,5,7,8,8a,9-hexahydropyrano[3′,4′:4,5]pyrrolo[2,3-d]pyrimidin-2-yl)amino)-1-(1-methylpiperidin-4-yl)pyridin-2(1H)-one]
